This note sets out measurements from ChEMBL document CHEMBL1201862, “PubChem BioAssay data set” (2004).

Some test systems named below: A498; COLO 205; DLD-1; HCT-15; HL-60; HOP-92; HT-29; NCI-H226; NCI-H460; OVCAR-3; OVCAR-4; SF-268; SK-OV-3; SW-620; U-251; SK-MEL-5; SR; TK-10.
Holding throughout (assay): DTP human tumour cell line panel, 48 h

SMILES strings stand for the structures.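 Growth conditions: 96-well plates. Treatment: test compound, 48 hours, 5 concentrations. Analysis: linear interpolation between bracketing concentrations; unreached endpoints set to highest concentration. Abbreviation: GI50, concentration required for 50% inhibition of growth.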 Active and inactive are the calls of the source. Cut-off read from the data, not from the text of the source: active = GI50 up to about 1.1 µM and inactive = higher.

What is called GI50 is the concentration at which growth is held to half of that of the control. In the case of `CC(O)(c1ccc(OCCC[N+](C)(C)C)cc1)C(C)(O)c1ccc(OCCC[N+](C)(C)C)cc1` (stereo unspecified), the GI50 was > 100 µM (inactive) in the experiment with A498; > 100 µM (inactive) in the experiment with COLO 205; > 100 µM (inactive) in the experiment with DLD-1; above 100 µM in the experiment on HCT-15; > 100 µM (inactive) with HL-60; > 100 µM (inactive) in the experiment on HOP-92. Also, the GI50 with HT-29, in the experiment on NCI-H226, in the experiment with NCI-H460, in the experiment with OVCAR-3, in the experiment on OVCAR-4 and in the experiment on SF-268 was > 100 µM (inactive) in each case. Further, the GI50 in the experiment with SK-OV-3, in the experiment on SW-620 and in the experiment on U-251 was > 100 µM (inactive) in each case.

For `CC(C)(C)c1cc(CCC(=O)Nc2ccc(Cl)cc2Cl)nc(N)n1`, the GI50 was > 100 µM (inactive) in the experiment with COLO 205; > 100 µM (inactive) with DLD-1; above 100 µM in the experiment with HCT-15; > 100 µM (inactive) with HL-60; 91.6 µM (inactive) with HOP-92; > 100 µM (inactive) in the experiment with HT-29. Moreover, the GI50 in the experiment on NCI-H226, with NCI-H460, in the experiment on OVCAR-3, in the experiment with OVCAR-4, with SF-268 and with SK-MEL-5 was > 100 µM (inactive) each time. The GI50 in the experiment with SK-OV-3, with SR, in the experiment on SW-620 and in the experiment on U-251 was > 100 µM (inactive) throughout.

In the case of `Cc1nc(=O)n2c(C)n[nH]c2c1C(=O)Nc1cc(Cl)cc(Cl)c1`, the GI50 in the experiment on COLO 205 was 26.7 µM (inactive); with DLD-1 it was 19.1 µM (inactive); in the experiment on HCT-15, 19.3 µM; in the experiment with HL-60 it was 20.1 µM (inactive); in the experiment on HOP-92 it was 17.5 µM (inactive); in the experiment with HT-29 it was 31.3 µM (inactive). Moreover, the GI50 in the experiment on NCI-H226 was 24.8 µM (inactive); in the experiment on NCI-H460 it was 26.9 µM (inactive); in the experiment with OVCAR-3, 14.2 µM (inactive); in the experiment with OVCAR-4, 29.2 µM (inactive); in the experiment on SF-268, 33.3 µM (inactive); in the experiment with SK-MEL-5, 16.1 µM (inactive). Moreover, the GI50 was 29 µM (inactive) in the experiment on SK-OV-3; 19.9 µM (inactive) with SR; 41.5 µM (inactive) in the experiment with SW-620; 19.8 µM (inactive) in the experiment with TK-10; 21.1 µM (inactive) with U-251.

On to `COc1ccc(OC)c2c1C(=O)C1CC1(Br)C2=O` (stereo unspecified), for which the GI50 with A498 was > 100 µM (inactive); in the experiment on COLO 205 it was > 100 µM (inactive); with DLD-1, > 100 µM (inactive); with HCT-15, above 100 µM; in the experiment with HL-60 it was > 100 µM (inactive); in the experiment with HT-29, > 100 µM (inactive). For the same compound, the GI50 in the experiment on NCI-H460, in the experiment on OVCAR-3, in the experiment on OVCAR-4, in the experiment on SF-268, with SK-MEL-5 and in the experiment with SK-OV-3 was > 100 µM (inactive) in each case. Further, the GI50 in the experiment on SW-620, in the experiment on TK-10 and in the experiment with U-251 was > 100 µM (inactive) throughout.

As for `Nc1nc(N)c(N=O)c(Nc2ccc(I)cc2)n1`, the GI50 in the experiment on COLO 205 was 18.6 µM (inactive); with DLD-1 it was 10 µM (inactive); with HCT-15 it was 12.2 µM; with HL-60, 6.53 µM (inactive); with NCI-H460, 27.5 µM (inactive); in the experiment on OVCAR-3, 13.2 µM (inactive). The GI50 is 13.9 µM (inactive) with SF-268; 13.5 µM (inactive) in the experiment on SK-MEL-5; 5.33 µM (inactive) with SK-OV-3; 10.8 µM (inactive) in the experiment on SR; 30 µM (inactive) with SW-620; 31 µM (inactive) with TK-10. In the experiment on U-251, the GI50 was 25.3 µM (inactive).

For the compound `CC1Nc2ccccc2NC1C=C(C#N)C#N` (stereo unspecified), the GI50 was 18.7 µM (inactive) in the experiment with COLO 205; 14.4 µM (inactive) in the experiment on DLD-1; 17.4 µM with HCT-15; 1.85 µM (inactive) in the experiment on HL-60; 15.1 µM (inactive) in the experiment on HOP-92; 16.7 µM (inactive) with HT-29. Also, the GI50 is 17.3 µM (inactive) in the experiment on NCI-H226; 19.4 µM (inactive) in the experiment on NCI-H460; 15.8 µM (inactive) with OVCAR-3; 15.9 µM (inactive) in the experiment on OVCAR-4; 14.7 µM (inactive) in the experiment on SF-268; 17.1 µM (inactive) in the experiment with SK-MEL-5. For the same compound, the GI50 is 21.8 µM (inactive) in the experiment on SK-OV-3; 5.61 µM (inactive) in the experiment with SR; 12.2 µM (inactive) in the experiment with SW-620; 19.6 µM (inactive) with TK-10; 16.1 µM (inactive) in the experiment with U-251.

Turning to `c1ccc2c(c1)CCc1c(-c3ccncc3)n[nH]c1-2`, the GI50 is 25.9 µM (inactive) with A498; 25.7 µM (inactive) in the experiment on COLO 205; 41.9 µM (inactive) in the experiment on DLD-1; 32.1 µM in the experiment with HCT-15; 34.3 µM (inactive) in the experiment on HL-60; 44.6 µM (inactive) with HT-29. Also, the GI50 was 23 µM (inactive) with NCI-H226; 32.1 µM (inactive) in the experiment on NCI-H460; 16.7 µM (inactive) with OVCAR-3; 28.8 µM (inactive) in the experiment on SF-268; 18 µM (inactive) in the experiment on SK-MEL-5; 33.4 µM (inactive) in the experiment on SK-OV-3. In addition, the GI50 in the experiment with SR was 27.8 µM (inactive); in the experiment with SW-620, 39.7 µM (inactive); in the experiment on TK-10 it was 29.8 µM (inactive); in the experiment on U-251, 13.6 µM (inactive).

`Cn1c(=O)c(C2c3ccccc3Oc3c2c(=O)n(C)c2ccccc32)c(O)c2ccccc21` (stereo unspecified): the GI50 in the experiment on COLO 205 was 30.6 µM (inactive); with DLD-1, 50.9 µM (inactive); in the experiment on HCT-15, 32.4 µM; with HL-60, 30.1 µM (inactive); in the experiment with HOP-92 it was 42.9 µM (inactive); with HT-29, 92.7 µM (inactive). In addition, the GI50 in the experiment on NCI-H226 was 46 µM (inactive); with NCI-H460 it was > 100 µM (inactive); with OVCAR-3, 52 µM (inactive); in the experiment on OVCAR-4, 86.7 µM (inactive); with SF-268, 66.4 µM (inactive); in the experiment on SK-MEL-5, > 100 µM (inactive). For the same compound, the GI50 with SK-OV-3 was 63.8 µM (inactive); with SR it was 42.1 µM (inactive); with SW-620 it was 43.9 µM (inactive); in the experiment on TK-10, 33.3 µM (inactive); in the experiment with U-251 it was 41.2 µM (inactive).

As for `N#CC1([N+](=O)[O-])C=C1c1ccccc1` (stereo unspecified), the GI50 in the experiment on COLO 205 is > 100 µM (inactive); in the experiment on DLD-1 it was 8.81 µM (inactive); with HCT-15, 36.7 µM; with HL-60, 23.3 µM (inactive); in the experiment on HT-29, 35.9 µM (inactive); in the experiment with NCI-H226 it was 95.3 µM (inactive). Moreover, the GI50 with NCI-H460 was 51.2 µM (inactive); in the experiment with OVCAR-3, > 100 µM (inactive); in the experiment on OVCAR-4, > 100 µM (inactive); in the experiment on SF-268, 53.7 µM (inactive); with SK-MEL-5 it was 57.3 µM (inactive); with SK-OV-3 it was > 100 µM (inactive). The GI50 in the experiment with SR was 25.2 µM (inactive); in the experiment with SW-620 it was 19.9 µM (inactive); in the experiment on TK-10 it was > 100 µM (inactive); in the experiment with U-251, > 100 µM (inactive).

`COc1cc(C2c3cc4c(cc3[C@@H](N(C)C)[C@H]3COC(=O)C23)OCO4)cc(OC)c1O` (stereo partly specified): the GI50 in the experiment on A498 was 23.3 µM (inactive); in the experiment with COLO 205 it was 39.4 µM (inactive); with DLD-1, 41.9 µM (inactive); in the experiment on HCT-15, 31.1 µM; in the experiment on HL-60, 33.4 µM (inactive); in the experiment with HOP-92 it was 11.2 µM (inactive). Also, the GI50 in the experiment with HT-29 is 34.4 µM (inactive); in the experiment with NCI-H226, > 100 µM (inactive); with NCI-H460, 31.2 µM (inactive); in the experiment with OVCAR-4, 42.9 µM (inactive); in the experiment on SF-268, 46.7 µM (inactive); in the experiment on SK-MEL-5 it was 23.7 µM (inactive). Also, the GI50 is 37 µM (inactive) in the experiment with SK-OV-3; 54.5 µM (inactive) in the experiment on SR; 38.1 µM (inactive) with SW-620; > 100 µM (inactive) in the experiment on TK-10; 34 µM (inactive) with U-251.

For `CC1CCC23COC(=O)C2C(O)CCC3C1(C)CC(O)c1ccoc1` (stereo unspecified), the GI50 is > 100 µM (inactive) with A498; > 100 µM (inactive) in the experiment on COLO 205; > 100 µM (inactive) in the experiment on DLD-1; above 100 µM in the experiment on HCT-15; > 100 µM (inactive) in the experiment with HOP-92; > 100 µM (inactive) in the experiment with HT-29. In addition, the GI50 in the experiment on NCI-H226, in the experiment with NCI-H460, with OVCAR-3, with OVCAR-4, in the experiment with SF-268 and in the experiment with SK-MEL-5 was > 100 µM (inactive) throughout. For the same compound, the GI50 with SK-OV-3, with SW-620, in the experiment with TK-10 and with U-251 was > 100 µM (inactive) throughout.

On to `O=C(CC(=O)N1N=C(n2ccc3ccccc32)CC1c1ccccc1)Nc1ccc(Cl)cc1` (stereo unspecified), for which the GI50 with A498 is > 100 µM (inactive); in the experiment on COLO 205 it was > 100 µM (inactive); with DLD-1, > 100 µM (inactive); in the experiment on HCT-15 it was above 100 µM; in the experiment with HL-60, > 100 µM (inactive); with HOP-92, 77.6 µM (inactive). For the same compound, the GI50 in the experiment on HT-29, in the experiment with NCI-H460, with OVCAR-3, in the experiment on OVCAR-4, in the experiment on SF-268 and in the experiment on SK-OV-3 was > 100 µM (inactive) in each case. Moreover, the GI50 in the experiment with SW-620, in the experiment on TK-10 and in the experiment on U-251 was > 100 µM (inactive) each time.

For `COC(=O)C1=C(CO)C2C=CC1C2` (stereo unspecified), the GI50 is > 100 µM (inactive) with A498; > 100 µM (inactive) in the experiment on COLO 205; > 100 µM (inactive) in the experiment on DLD-1; above 100 µM in the experiment with HCT-15; > 100 µM (inactive) with HL-60; > 100 µM (inactive) with HT-29. The GI50 in the experiment with NCI-H226, with NCI-H460, in the experiment with OVCAR-3, in the experiment with OVCAR-4, with SF-268 and with SK-MEL-5 was > 100 µM (inactive) each time. In addition, the GI50 in the experiment on SK-OV-3, in the experiment on SW-620, in the experiment on TK-10 and with U-251 was > 100 µM (inactive) each time.
